According to patent publication US11338026B2, “Identification of immunologically protective neo-epitopes for the treatment of cancers” (THE UNIVERSITY OF CONNECTICUT, priority 2014, dated 2022):
“Also recorded” adds a separate entry of the source. Where two headings read alike, the source gives them in different places. Peptide text beside a SMILES is read from it.

What was measured:
H-2 K^d = molecular target: T1, H-2 K^d (Mus musculus, UniProt P01902); experiment: Binding assays: inhibition of binding of a radiolabeled standard peptide to purified MHC molecules
T1 sequence (P01902 22-368): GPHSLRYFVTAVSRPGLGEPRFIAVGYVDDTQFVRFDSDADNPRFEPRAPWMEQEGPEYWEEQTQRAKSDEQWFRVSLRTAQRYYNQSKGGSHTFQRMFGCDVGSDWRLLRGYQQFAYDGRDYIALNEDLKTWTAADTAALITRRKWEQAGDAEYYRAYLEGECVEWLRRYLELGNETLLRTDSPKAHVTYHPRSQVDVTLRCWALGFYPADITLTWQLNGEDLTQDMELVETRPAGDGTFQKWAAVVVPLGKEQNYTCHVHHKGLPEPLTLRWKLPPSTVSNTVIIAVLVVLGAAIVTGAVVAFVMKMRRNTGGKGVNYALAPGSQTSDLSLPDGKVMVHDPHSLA
T1 sequence (P01887 21-119 partner): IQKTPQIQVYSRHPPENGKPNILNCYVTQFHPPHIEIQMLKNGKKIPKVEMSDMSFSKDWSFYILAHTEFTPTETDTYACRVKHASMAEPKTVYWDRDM
Procedure: Binding assays. Binding of peptides to H-2 K^d was determined using quantitative assays based on the inhibition of binding of a radiolabeled standard peptide to purified MHC molecules essentially as described previously. […] Under the conditions utilized, where [label]<[MHC] and IC50≥[MHC], the measured IC50 values are reasonable approximations of the dissociation constant values.

CD8+ cells = experiment: IFNγ ELISPOT on CD8+ cells of immunized mice; assay type: in vivo, BALB/c mice; settings: for ELISpot: mice immunized with mutant peptide; for CD8 T cell response of immunized mice: ELISPOT
Procedure: For the ELISPOT assays, the negative controls were CD8+ cells from immunized mice without peptide stimulation. […] The magnitude of responses was rated by mean spot numbers per million CD8+ cells: 5-10 (+); 11-20 (++); 21-50 (+++); 51-100(++++) and >100(+++++).
All 18 peptides were used to immunize BALB/c mice. The draining lymph nodes (dLNs) of immunized mice were harvested one week after the single immunization, and the cells were stimulated in vitro for 16 h without any added peptide, the mutant peptide used for immunization, or the corresponding wild type peptide. The CD8+ cells were analyzed for activation (CD44+) and effector function (intracellular IFNγ+). (see Materials and Methods regarding the details of FACS analysis.) All possible patterns of immune-reactivity were observed (FIG. 3A): no immune response (12/18), a mutant peptide-specific, i.e. tumor-specific immune response (5/18), and a cross-reactive response between the mutant and corresponding wild type peptides (1/18).

[1] = mutant peptide, read-out: Measured IC50 for K^d (Mut/WT): Mut
[2] = WT counterpart peptide, read-out: Measured IC50 for K^d (Mut/WT): WT

SMILES | IC50 (H-2 K^d) [µM] | ELISpot (CD8+ cells) | also measured
CSCC[C@H](NC(=O)[C@@H]1CCCN1C(=O)[C@@H](NC(=O)[C@H](Cc1ccc(O)cc1)NC(=O)[C@@H](N)CC(=O)O)C(C)C)C(=O)N[C@@H](CCC(=O)O)C(=O)N[C@@H](CCC(N)=O)C(=O)N1CCC[C@H]1C(=O)O [Alkbh6.1, D(y/D)VPMEQP] (H-DYVPMEQP-OH) | > 70 | – | IC50 (H-2 K^d; [1]): 60.9 µM
CC[C@H](C)[C@H](NC(=O)[C@H](C)NC(=O)[C@H](Cc1ccc(O)cc1)NC(=O)[C@H](CCC(N)=O)NC(=O)[C@@H](NC(=O)[C@H](CC(C)C)NC(=O)[C@H](Cc1ccc(O)cc1)NC(=O)[C@@H]1CCCN1)[C@@H](C)O)C(=O)N[C@H](C(=O)N[C@@H](CCSC)C(=O)O)[C@@H](C)CC [Dhx8.4] (H-PYLTQYAIIM-OH) | 6.26 | +++ (21-50 spots/10^6 CD8 = +++) | IC50 (H-2 K^d; [1]): 6.57 µM
CC(C)C[C@H](NC(=O)[C@H](CCCNC(=N)N)NC(=O)[C@@H]1CCCN1C(=O)[C@H](CO)NC(=O)[C@H](CCCNC(=N)N)NC(=O)[C@H](Cc1ccc(O)cc1)NC(=O)[C@H](CCC(N)=O)NC(=O)[C@H](CCCNC(=N)N)NC(=O)[C@H](CCC(N)=O)NC(=O)[C@H](CC(C)C)NC(=O)[C@@H](N)CCCCN)C(=O)O [Mast2] (H-KLQRQYRSPRL-OH) | 8.51 | – | –
CC[C@H](C)[C@H](NC(=O)[C@H](C)NC(=O)[C@H](Cc1ccc(O)cc1)NC(=O)[C@H](CCC(N)=O)NC(=O)[C@@H](NC(=O)[C@H](CC(C)C)NC(=O)[C@H](Cc1ccc(O)cc1)NC(=O)[C@@H]1CCCN1)[C@@H](C)O)C(=O)O [Dhx8.2, P(y/D)LTQYAI] (H-PYLTQYAI-OH; N-terminus and C-terminus assumed) | – | +++++ (>100 spots/10^6 CD8 = +++++) | –
CC[C@H](C)[C@H](NC(=O)[C@H](CS)NC(=O)[C@H](CC(C)C)NC(=O)[C@H](C)NC(=O)[C@H](CCC(N)=O)NC(=O)[C@H](CC(C)C)NC(=O)[C@H](CCSC)NC(=O)[C@H](Cc1ccc(O)cc1)NC(=O)[C@@H](N)CO)C(=O)N1CCC[C@H]1C(=O)O [Tnpo3.3] (H-SYMLQALCIP-OH) | 0.111 | – | –
CSCC[C@H](NC(=O)[C@H](CC(C)C)NC(=O)CNC(=O)[C@@H]1CCCN1C(=O)[C@H](Cc1ccccc1)NC(=O)[C@@H](N)C(C)C)C(=O)N[C@@H](CCC(=O)O)C(=O)N[C@@H](CC(C)C)C(=O)O [Atxn10.2, VFPGLME(l/R)] (H-VFPGLMEL-OH; N-terminus and C-terminus assumed) | – | – | IC50 (H-2 K^d; [2]): 1.11 µM; CD8 T cell response of immunized mice (CD8+ cells; text): did not elicit a detectable response at all; CD8 T cell response of immunized mice (CD8+ cells; text, listed as Atxn 10.2): did not elicit a detectable CD8 response
CC(C)C[C@H](NC(=O)[C@H](CCC(=O)O)NC(=O)[C@H](CC(=O)O)NC(=O)[C@H](CCC(=O)O)NC(=O)[C@H](CC(C)C)NC(=O)[C@H](CC(C)C)NC(=O)CNC(=O)[C@H](CCC(N)=O)NC(=O)[C@H](CC(C)C)NC(=O)[C@@H](N)CCC(=O)O)C(=O)O [Ccdc136] (H-ELQGLLEDEL-OH; N-terminus and C-terminus assumed) | – | – | IC50 (H-2 K^d; [2]): 4.54 µM; CD8 T cell response of immunized mice (CD8+ cells): did not elicit a detectable response at all; also recorded: did not elicit a detectable CD8 response
CC(C)C[C@H](NC(=O)[C@H](CCC(=O)O)NC(=O)[C@H](Cc1c[nH]c2ccccc12)NC(=O)[C@H](CS)NC(=O)[C@@H](NC(=O)[C@H](CCC(=O)O)NC(=O)[C@H](CS)NC(=O)[C@H](Cc1ccc(O)cc1)NC(=O)[C@H](C)N)[C@@H](C)O)C(=O)O [Apc] (H-AYCETCWEL-OH) | – | +++++ (>100 spots/106 CD8 = +++++) | IC50 (H-2 K^d; [2]): 0.06 µM
CSCC[C@H](NC(=O)[C@H](Cc1ccc(O)cc1)NC(=O)[C@@H](N)CO)C(=O)N[C@@H](CC(C)C)C(=O)N[C@@H](CCC(N)=O)C(=O)N[C@@H](C)C(=O)N[C@@H](CC(C)C)C(=O)N[C@@H](CS)C(=O)O [Tnpo3.4, (sy/LD)MLQALC] (H-SYMLQALC-OH) | 0.089 | – | –
CC(C)C[C@H](N)C(=O)N[C@@H](Cc1ccc(O)cc1)C(=O)N[C@@H](CC(=O)O)C(=O)N[C@H](C(=O)N[C@@H](CC(=O)O)C(=O)N[C@@H](C)C(=O)N[C@@H](C)C(=O)N[C@@H](Cc1ccccc1)C(=O)O)C(C)C [Cpsf2, L(y/D)DVDAAF] (H-LYDVDAAF-OH) | > 70 | +++ (21-50 spots/10^6 CD8 = +++) | IC50 (H-2 K^d; [1]): 1.41 µM
CSCC[C@H](NC(=O)[C@@H]1CCCN1C(=O)[C@@H](NC(=O)[C@H](Cc1ccc(O)cc1)NC(=O)[C@@H](N)CC(=O)O)C(C)C)C(=O)N[C@@H](CCC(=O)O)C(=O)N[C@@H](CCC(N)=O)C(=O)N1CCC[C@H]1C(=O)N[C@@H](CCCNC(=N)N)C(=O)N1CCC[C@H]1C(=O)O [Alkbh6.3] (H-DYVPMEQPRP-OH; N-terminus and C-terminus assumed) | – | – | IC50 (H-2 K^d; [2]): 23.6 µM
CC(C)C[C@H](NC(=O)CNC(=O)[C@H](CC(C)C)NC(=O)[C@H](CC(C)C)NC(=O)[C@H](CO)NC(=O)[C@H](CCCNC(=N)N)NC(=O)[C@H](CCCNC(=N)N)NC(=O)[C@H](CO)NC(=O)[C@H](CO)NC(=O)[C@H](Cc1c[nH]c2ccccc12)NC(=O)[C@@H](N)CO)C(=O)O [9430016H08Rik] (H-SWSSRRSLLGL-OH) | – | – | IC50 (H-2 K^d; WT counterpart peptide, read-out: Measured IC50 for K^d (Mut/WT): WT, class symbol): > 70 µM
CC(C)C[C@H](NC(=O)[C@H](CC(=O)O)NC(=O)[C@H](CC(C)C)NC(=O)[C@H](Cc1ccc(O)cc1)NC(=O)[C@@H](N)CCC(=O)O)C(=O)N[C@@H](CCC(N)=O)C(=O)N[C@H](C(=O)N[C@@H](CCC(N)=O)C(=O)NCC(=O)O)[C@@H](C)O [Zfp236.2, E(y/D)LDLQTQG] (H-EYLDLQTQG-OH) | > 70 | – | –
CC[C@H](C)[C@H](NC(=O)[C@H](CS)NC(=O)CNC(=O)[C@H](Cc1c[nH]cn1)NC(=O)[C@H](Cc1ccccc1)NC(=O)CN)C(=O)N[C@@H](Cc1c[nH]cn1)C(=O)N[C@@H](CCC(=O)O)C(=O)N[C@H](C(=O)N[C@@H](CC(C)C)C(=O)O)C(C)C [Slit3] (H-GFHGCIHEVL-OH) | – | – | IC50 (H-2 K^d; mutant neo-epitopes, read-out: measured IC50 / affinity for binding to K^d): ~50 µM
CC[C@H](C)[C@H](NC(=O)[C@H](C)NC(=O)[C@H](Cc1ccc(O)cc1)NC(=O)[C@H](CCC(N)=O)NC(=O)[C@@H](NC(=O)[C@H](CC(C)C)NC(=O)[C@H](Cc1ccc(O)cc1)NC(=O)[C@@H]1CCCN1)[C@@H](C)O)C(=O)N[C@H](C(=O)N[C@@H](CCSC)C(=O)N[C@@H](CC(C)C)C(=O)O)[C@@H](C)CC [Dhx8.1] (H-PYLTQYAIIML-OH) | 1.65 | +++++ (>100 spots/10^6 CD8 = +++++) | IC50 (H-2 K^d; [1]): 2.19 µM
CC(C)C[C@H](NC(=O)[C@H](CC(=O)O)NC(=O)[C@H](CC(C)C)NC(=O)[C@H](Cc1ccc(O)cc1)NC(=O)[C@@H](N)CCC(=O)O)C(=O)N[C@@H](CCC(N)=O)C(=O)N[C@H](C(=O)N[C@@H](CCC(N)=O)C(=O)O)[C@@H](C)O [Zfp236.1, E(y/D)LDLQTQ] (H-EYLDLQTQ-OH) | > 70 | – | –
CC[C@H](C)[C@H](NC(=O)[C@@H](NC(=O)[C@H](C)NC(=O)[C@H](Cc1ccc(O)cc1)NC(=O)[C@H](CCC(N)=O)NC(=O)[C@@H](NC(=O)[C@H](CC(C)C)NC(=O)[C@H](Cc1ccc(O)cc1)NC(=O)[C@@H]1CCCN1)[C@@H](C)O)[C@@H](C)CC)C(=O)O [Dhx8.3, P(y/D)LTQYAII] (H-PYLTQYAII-OH) | 1.42 | +++++ (>100 spots/10^6 CD8 = +++++) | IC50 (H-2 K^d; [1]): 0.244 µM
